Measured values as given in patent US20200277268A1, “PENTAFLUOROPHENYL SULFONAMIDE COMPOUNDS, COMPOSITIONS AND USES THEREOF” (DALRIADA THERAPEUTICS INC., priority 2017, published 2020).
pIC50: −log10 of the molar value. “Also recorded” adds a separate entry of the source.

Experiments:
[1] = tested on: MV4-11; assay: CellTiter-Blue cell viability, MV4-11; format: cell-based; settings: Homo sapiens, MV4-11
In short: (§1)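 Cells were seeded at 1×10^4/well, grown 24 h in FBS-supplemented medium, then exposed to compound (0.097656–50 μM) for 72 h at 37° C, 5% CO2. Viability was read by CellTiter-Blue fluorescence (560/590 nm) after 1–4 h reagent incubation, with IC50 derived by non-linear regression.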

[2] = tested on: AR230R; assay: Cell viability, CML AR230R; format: cell-based; settings: Table 4
Procedure: (§2) The anti-cancer efficacy of exemplary compounds of the application were assessed in vitro against different cancer cell lines. Cell viability was examined following treatment at various concentrations of inhibitor (0.097656-50 μM) using a CellTiter-Blue® cell viability assay. 1×10^4 cells/well were plated in 96-well assay plates in culture medium. All cells were grown in DMEM, IMDM and RPMI-1640 supplemented with 10% fetal bovine serum (FBS). In some instances, FBS was removed for periods ranging from 16-24 hours, and re-introduced with test compound addition. After 24 hrs, test compounds and vehicle controls were added to appropriate wells such that the final volume was 100 μl in each well. The cells were cultured for the desired test exposure period (72 hours) at 37° C. and 5% CO2. The assay plates were removed from […] incubator and 20 μl/well of CellTiter-Blue® Reagent was added. The plates were incubated using standard cell culture conditions for 1-4 hours. Afterwards, the plates were shaken for 10 seconds and florescence was recorded at 560/590 nm using a Cytation 3 spectrophotometer. IC50 values were determined using non-linear regression analysis with GraphPad Prism 6.0 (GraphPad Software Inc.). […]

[3] = tested on: MOLM13; assay: CellTiter-Blue cell viability, MOLM13; format: cell-based; settings: Homo sapiens, MOLM-13
In short: as §1

[4] = tested on: U87MG; assay: Cell viability, glioblastoma U87MG; format: cell-based; settings: Homo sapiens, U-87 MG; glioblastoma cell line
Procedure: The anti-cancer efficacy of exemplary compounds of the application were assessed in vitro against different cancer cell lines. […] 1×10^4 cells/well were plated in 96-well assay plates in culture medium. […] In some instances, FBS was removed for periods ranging from 16-24 hours, and re-introduced with test compound addition. After 24 hrs, test compounds and vehicle controls were added to appropriate wells such that the final volume was 100 μl in each well. The cells were cultured for the desired test exposure period (72 hours) at 37° C. and 5% CO2. The assay plates were removed from […] incubator and 20 μl/well of CellTiter-Blue® Reagent was added. The plates were incubated using standard cell culture conditions for 1-4 hours. Afterwards, the plates were shaken for 10 seconds and florescence was recorded at 560/590 nm using a Cytation 3 spectrophotometer. IC50 values were determined using non-linear regression analysis with GraphPad Prism 6.0 (GraphPad Software Inc.).

[5] = tested on: MOLM14; assay: Cell viability, AML MOLM14; format: cell-based; settings: Homo sapiens, MOLM-14, Table 4
Procedure: as §2

[6] = Intrinsic clearance in mouse hepatocytes
[7] = molecular target: T1, UBA5 (Homo sapiens, UniProt Q9GZZ9); assay: 19F NMR study of covalent modification of UBA5; format: binding; settings: 100 μM compound, 100 μM UBA5, 2 hours at 37° C.
T1 construct: Constructs of full length human UBA5 (1-404) were cloned into a pET28b(+) vector; His-SUMO (N, cleaved yes); made in house; host or cells: E. coli BL21 (DE3) RILP
Procedure: Spectra were normalized and referenced according to the fluorine peak of 5-fluoro-Trp.
To assess potential reactivity of I-1 against Cys containing proteins, a series of ^19F NMR studies were conducted with BSA, lysozyme, STAT3, and STATS. […] All samples were prepared in 100 mM HEPES pH 7.4, and 100 μM 5-fluoro-Trp, with a final concentration of 10% D20 and 10% DMSO. The samples were incubated for 2 hours at 37° C. prior to data collection. All spectra were normalized and referenced according to the fluorine peak of 5-fluoro-Trp.
To evaluate covalent modification of UBA5 by I-1, ^19F NMR studies were conducted in accordance with the procedure described in Example 80.

[8] = tested on: primary human fibroblast cells (PHF); assay: CellTiter-Blue cell viability, PHF; format: cell-based; settings: non-cancerous, 72 hours
Procedure: The anti-cancer efficacy of exemplary compounds of the application were assessed in vitro against different cancer cell lines. Cell viability was examined following treatment at various concentrations of inhibitor (0.097656-50 μM) using a CellTiter-Blue® cell viability assay. 1×10^4 cells/well were plated in 96-well assay plates in culture medium. All cells were grown in DMEM, IMDM and RPMI-1640 supplemented with 10% fetal bovine serum (FBS). In some instances, FBS was removed for periods ranging from 16-24 hours, and re-introduced with test compound addition. After 24 hrs, test compounds and vehicle controls were added to appropriate wells such that the final volume was 100 μl in each well. The cells were cultured for the desired test exposure period (72 hours) at 37° C. and 5% CO2. The assay plates were removed from 3° C. incubator and 20 μl/well of CellTiter-Blue® Reagent was added. The plates were incubated using standard cell culture conditions for 1-4 hours. Afterwards, the plates were shaken for 10 seconds and florescence was recorded at 560/590 nm using a Cytation 3 spectrophotometer. IC50 values were determined using non-linear regression analysis with GraphPad Prism 6.0 (GraphPad Software Inc.).

[9] = tested on: OCI-AML3; assay: Cell viability, AML OCI-AML3; format: cell-based; settings: Homo sapiens, OCI-AML-3, Table 4
Procedure: as §2

[10] = molecular target: T1, UBA5; assay: Thermal shift assay of UBA5; format: binding; settings: 50 μM I-1, 0.5 μM UBA5; without compound 46.43° C.
Procedure: SYPRO Orange protein gel stain (Sigma-Aldrich) was used to conduct thermal shift assays. This was done on a Bio-Rad C1000 Touch ThermoCycler with a CFX96 Real-Time optical unit. Final UBA5 protein concentrations of 0.5 μM were used in 50 mM HEPES, pH 7.4. UBA5 was pre-incubated with test compound I-1 for 4 hours at 30° C. Next, SYPRO orange was added to the samples for a final 5× (10 μM) concentration from the original 5000× stock. DMSO content was 5% (v/v). Heating was done in 0.5° C. increases with 30 seconds in between, from 10 to 75° C. Fluorescence intensity was measured at […] followed by excitation at […]. This emission intensity was graphed against temperature and then recorded as a first derivative curve. The temperature of the resultant curve minima provided the melting temperature (Tm) of the protein. Experiments were run in triplicates.

[11] = tested on: kinases; assay: KINOMEscan kinase screen (DiscoverX); format: binding; settings: 10 μM
Procedure: For most assays, kinase-tagged T7 phage strains were grown in parallel in 24-well blocks in an E. coli host derived from the BL21 strain. E. coli were grown to log-phase and infected with T7 phage from a frozen stock (multiplicity of infection=0.4) and incubated with shaking at 32° C. until lysis (90-150 minutes). The lysates were centrifuged (6,000×g) and filtered (0.2 μm) to remove cell debris. The remaining kinases were produced in HEK-293 cells and subsequently tagged with DNA for qPCR detection. […] The liganded beads were blocked with excess biotin and washed with blocking buffer (SeaBlock (Pierce), 1% BSA, 0.05% Tween 20, 1 mM DTT) to remove unbound ligand and to reduce non-specific phage binding. […] I-1 test compound was prepared as 40× stocks in 100% DMSO and directly diluted into the assay. All reactions were performed in polypropylene 384-well plates in a final volume of 0.02 mL. […] The kinase concentration in the eluates was measured by qPCR. […]
I-1 test compound was tested at 10 μM, and results for primary screen binding interactions are reported as […] where lower numbers indicate stronger hits in the matrix. Ctrl is calculated with the following formula:
test compound=I-1 negative control=DMSO (100% Ctrl) positive control=control compound (0% Ctrl)

T1 sequence (Q9GZZ9 whole entry): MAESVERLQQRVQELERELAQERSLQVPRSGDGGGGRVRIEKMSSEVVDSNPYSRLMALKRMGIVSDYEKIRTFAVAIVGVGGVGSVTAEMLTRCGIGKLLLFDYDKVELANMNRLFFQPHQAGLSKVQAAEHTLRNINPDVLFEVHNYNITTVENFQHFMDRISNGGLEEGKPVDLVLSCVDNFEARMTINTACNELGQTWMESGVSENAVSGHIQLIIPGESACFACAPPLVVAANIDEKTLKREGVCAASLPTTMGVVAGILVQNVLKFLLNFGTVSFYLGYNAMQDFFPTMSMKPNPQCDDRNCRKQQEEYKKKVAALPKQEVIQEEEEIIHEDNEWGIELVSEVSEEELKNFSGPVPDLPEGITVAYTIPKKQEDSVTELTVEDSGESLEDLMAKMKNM

pIC50 ([1]; AML cell line, 72 hours): 6.33 | pIC50 ([1]; AML, Table 4): 6.22 | pIC50 ([3]; AML cell line, 72 hours): 5.82 | pIC50 ([3]; AML, Table 4): 5.60 | pIC50 [4]: 5.54 | pIC50 [5]: 5.60 to 5.77 | half-life at 1 μM [6]: 3.07 h | pIC50 [9]: 5.25 | melting temperature (Tm) of UBA5 with compound [10]: 44.33 °C
SMILES: O=S(=O)(c1c(F)c(F)c(F)c(F)c1F)N(Cc1ccc(F)cc1)C1CC1 [Compound I-1, N-cyclopropyl-2,3,4,5,6-pentafluoro-N-(4-fluorobenzyl)benzenesulfonamide]
pIC50 [2]: 5.82 | covalent modification of UBA5 (free fluoride detection) [7]: Fluoride was released; also recorded: covalently modifies UBA5 | pIC50 [8]: 5.47 | competitive binding / inhibition of kinase targets [11]: negligible competitive binding; also recorded: does not inhibit
